Laboratory results: the NIST ThermoML archive (doi:10.1021/je700096m)
Numbers after ± are expanded uncertainties.

Conditions: Liquid

CCCCCl [1-chlorobutane]
mass density [kg/m3]
Conditions	288.15 K	298.15 K	308.15 K	318.15 K
100 kPa	891.8 ± 0.2	880.6 ± 0.3	870 ± 0.3	859.1 ± 0.3
2000 kPa	893.6 ± 0.3	882.6 ± 0.3	872.1 ± 0.3	861.5 ± 0.3
4000 kPa	–	–	–	863.8 ± 0.3
4100 kPa	895.6 ± 0.3	884.9 ± 0.3	874.4 ± 0.3	–
6100 kPa	897.5 ± 0.3	886.8 ± 0.3	876.5 ± 0.3	866.3 ± 0.3
8100 kPa	899.4 ± 0.3	888.7 ± 0.3	878.6 ± 0.3	868.7 ± 0.3
10100 kPa	901.3 ± 0.3	890.9 ± 0.3	880.8 ± 0.3	870.9 ± 0.3
12100 kPa	903 ± 0.3	892.8 ± 0.3	882.9 ± 0.3	873.1 ± 0.3
14100 kPa	904.9 ± 0.3	–	–	875.1 ± 0.3
14200 kPa	–	894.7 ± 0.3	884.9 ± 0.3	–
16200 kPa	–	896.5 ± 0.3	886.8 ± 0.3	877.2 ± 0.4
16300 kPa	906.7 ± 0.3	–	–	–
18300 kPa	–	898.5 ± 0.3	888.8 ± 0.4	–
18400 kPa	908.5 ± 0.3	–	–	879.3 ± 0.4
20200 kPa	910.3 ± 0.3	–	890.6 ± 0.4	881.2 ± 0.4
20400 kPa	–	900.2 ± 0.3	–	–

CCCCCCCl [1-chlorohexane]
Conditions	mass density [kg/m3]
288.15 K, 100 kPa	882.7 ± 0.6
288.15 K, 2000 kPa	884.4 ± 0.7
288.15 K, 4100 kPa	886 ± 0.7
288.15 K, 5900 kPa	887.5 ± 0.8
288.15 K, 8100 kPa	889.2 ± 0.8
288.15 K, 10100 kPa	890.7 ± 0.9
288.15 K, 12200 kPa	892.3 ± 0.9
288.15 K, 14200 kPa	893.8 ± 0.9
288.15 K, 16200 kPa	895.2 ± 1
288.15 K, 18200 kPa	896.7 ± 1
288.15 K, 20200 kPa	898.3 ± 1.1
298.15 K, 100 kPa	873.1 ± 0.6
298.15 K, 2000 kPa	874.8 ± 0.7
298.15 K, 4100 kPa	876.6 ± 0.7
298.15 K, 6100 kPa	878.3 ± 0.8
298.15 K, 8100 kPa	879.9 ± 0.8
298.15 K, 10200 kPa	881.7 ± 0.9
298.15 K, 12100 kPa	883.3 ± 0.9
298.15 K, 14200 kPa	885 ± 1
298.15 K, 16400 kPa	886.6 ± 1
298.15 K, 18400 kPa	888.1 ± 1.1
298.15 K, 20200 kPa	889.6 ± 1.1
308.15 K, 100 kPa	864.3 ± 0.7
308.15 K, 2000 kPa	866.1 ± 0.7
308.15 K, 4100 kPa	868 ± 0.8
308.15 K, 6100 kPa	869.7 ± 0.8
308.15 K, 8100 kPa	871.5 ± 0.9
308.15 K, 10200 kPa	873.3 ± 0.9
308.15 K, 12100 kPa	875 ± 1
308.15 K, 14200 kPa	876.7 ± 1
308.15 K, 16200 kPa	878.3 ± 1.1
308.15 K, 18300 kPa	879.9 ± 1.1
308.15 K, 20200 kPa	881.5 ± 1.2
318.15 K, 100 kPa	855.1 ± 0.7
318.15 K, 2000 kPa	857 ± 0.7
318.15 K, 4000 kPa	858.9 ± 0.8
318.15 K, 6100 kPa	860.9 ± 0.9
318.15 K, 8100 kPa	862.7 ± 0.9
318.15 K, 10100 kPa	864.6 ± 1
318.15 K, 11900 kPa	866.1 ± 1
318.15 K, 14100 kPa	868.1 ± 1.1
318.15 K, 16100 kPa	869.9 ± 1.1
318.15 K, 18000 kPa	871.4 ± 1.2
318.15 K, 20000 kPa	872.8 ± 1.2
